Results as given in patent US12441773B2, “Peptides, hydrogel compositions and methods of use thereof” (Regents of the University of Minnesota, priority 2019, dated 2025).
Where a SMILES comes first, the peptide text is derived from it. [ ]: non-standard residue; d: D form. The star is where a group is joined. MeOCH2CH2OCH2CO = COCCOCC(=O)*; PEG = not defined here; PEG1 = NCCOCCC(=O)O

How the values were obtained:
[1] = tested on: Pseudomonas aeruginosa; format: cell-based
Experimental: (§1) Standard broth dilution assays were performed to determine the Minimal Inhibitory Concentration (MIC) of each peptide against Pseudomonas aeruginosa (P.a.) or Staphylococcus aureus (S.a.) (Table 2).

[2] = tested on: Staphylococcus aureus; format: cell-based
Experimental: as §1

[3] = in vitro; format: cell-based; conditions: human, human red blood cells
Experimental: FIG. 7: The in vitro toxicity of soluble DGL13K and PEG-pro-DGL 13K was tested against human Red Blood Cells and hemolysis recorded (% lysis compared to dH2O).
The dose causing lysis of 50% (LD50) of human red blood cells (RBC) was determined and the therapeutic index (Tx Indx) was calculated as LD50/MIC.

[4] = Hydrogel formation with dilute sodium hydroxide, Crystal Violet overlay; format: physicochemical; conditions: 8.3 mg/ml peptide, 16.7 mM NaOH, room temperature 5-10 min
Experimental: FIG. 2: Hydrogel formation of GL13 peptides. Hydrogels are overlaid with Crystal Violet solution. D=DGL13K; R=DGL13R; PEG-L=PEG-LGL13K; pro-D=PEG-pro-DGL13K; E4=PEG-E4-pro-DGL13K; L=LGL13K.
FIG. 8: Hydrogels were formed with 4.2 mg/ml peptide+sodium hydroxide at the concentrations shown. Hydrogels were overlaid with Crystal Violet. Two phases indicate the formation of a hydrogel; Phase mixing indicates the absence of hydrogel. The hydrogels formed at 6.7 mM NaOH were not stable overnight (not shown).
FIG. 9: Hydrogels were formed with 16.7 mM sodium hydroxide and peptides at the concentrations shown. D=DGL13K; L=LGL13K; R=DGL13R. Hydrogels were overlaid with Crystal Violet and imaged within 10 min. Two phases indicate the formation of a hydrogel; Phase mixing indicates the absence of hydrogel.
The antimicrobial peptide GL13K can form a hydrogel when the peptide is reacted with dilute sodium hydroxide. Hydrogels were formed by incubating 8.3 mg/ml peptide with 16.7 mM NaOH and incubating at room temperature for 5-10 min. Hydrogels were overlaid with Crystal Violet. Two phases indicate the formation of a hydrogel; Phase mixing indicates the absence of hydrogel.

[5] = tested on: S. aureus; test: Peptide hydrogels placed on S. aureus plated on agar; format: cell-based, Staphylococcus aureus; conditions: hydrogel on agar plate
Experimental: FIG. 3. Peptide hydrogels on S. aureus.
(§2) To test antibacterial activity, S. aureus (FIG. 3) or P. aeruginosa (FIG. 4) were plated on agar and peptide hydrogels placed on top of the bacteria. The plates were incubated to allow a bacterial lawn to grow. […] The larger inhibition zone seen for DGL13R is consistent with a lack of hydrogel formation, which allowed the peptide solution to spread on the plate.

[6] = tested on: P. aeruginosa; test: Peptide hydrogels placed on P. aeruginosa plated on agar; format: cell-based, Pseudomonas aeruginosa; conditions: hydrogel on agar plate
Experimental: FIG. 4: Peptide hydrogels on P. aeruginosa Ac.Ac.=0.01% acetic acid mixed with NaOH (buffer control).
as §2

[7] = tested on: mouse skin burn; test: Mouse burn wound healing model; format: in vivo; conditions: seven days after the burn
[8] = format: physicochemical
Experimental: FIG. 1: Turbidity of peptide solutions at 630 nm. Peptides were suspended in 0.01% acetic acid (our standard peptide solvent), Phosphate-Buffered Saline (PBS), pH 7.4 or dH2O.
LGL13K and DGL13K are not soluble in physiological salt solution (PBS). […] In FIG. 1, solubility is measured as the absence of optical density (OD) due to turbidity at 630 nm.

[9] = tested on: Galleria mellonella (waxmoth larvae); conditions: in vivo
Experimental: FIG. 6: Galleria mellonella (wax moth larvae) were injected with liquid or hydrogel forms of the listed peptide. Larval survival was monitored for 48 h.
Hydrogels are less toxic in vitro and in vivo than the unmodified peptide. To test toxicity in vivo, hydrogels of DGL13K, PEG-pro-DGL13K (PEG-DGL13K) or liquid PEG-DGL13K were injected into Galleria mellonella (waxmoth larvae) and survival monitored for 48 hrs (FIG. 6). […] Hydrogel of PEG-pro-DGL13K was less toxic than hydrogel of the unmodified DGL13K peptide.

Compound | Minimal Inhibitory Concentration P.a. [1] | Minimal Inhibitory Concentration S.a. [2] | HC50 [3] | Hydrogel formation [4] | Growth of S. aureus lawn under peptide hydrogel [5] | Growth of P. aeruginosa lawn under peptide hydrogel [6] | Improved healing compared to SSD-treated mice [7] | Improved healing compared to the control mice ([7]; peptide in solution or hydrogel) | Solubility in physiological salt solution (PBS) [8] | Toxicity of hydrogel compared with hydrogel of unmodified DGL13K [9]
CC[C@@H](C)[C@@H](NC(=O)[C@@H](CCCCN)NC(=O)CN)C(=O)N[C@@H](C(=O)N[C@H](CCCCN)C(=O)N[C@H](CC(C)C)C(=O)N[C@H](CCCCN)C(=O)N[C@H](C)C(=O)N[C@H](CO)C(=O)N[C@H](CC(C)C)C(=O)N[C@H](CCCCN)C(=O)N[C@H](CC(C)C)C(=O)N[C@H](CC(C)C)C(N)=O)[C@H](C)CC [DGL13K, NH2-Gly-d-Lys-d-Ile-d-Ile-d-Lys-d-Leu-d-Lys-d-Ala-d-Ser-d-Leu-d-Lys-d-Leu-d-Leu-CONH2] (H-G[dK][dI][dI][dK][dL][dK][dA][dS][dL][dK][dL][dL]-NH2) | 5.2 µg/mL | 1.3 to 2.6 µg/mL | 500 µg/mL | formed hydrogels | prevented the growth | effectively prevented the growth | 48% | 36% | – | –
CC[C@@H](C)[C@@H](NC(=O)[C@@H](CCCNC(=N)N)NC(=O)CN)C(=O)N[C@@H](C(=O)N[C@H](CCCNC(=N)N)C(=O)N[C@H](CC(C)C)C(=O)N[C@H](CCCNC(=N)N)C(=O)N[C@H](C)C(=O)N[C@H](CO)C(=O)N[C@H](CC(C)C)C(=O)N[C@H](CCCNC(=N)N)C(=O)N[C@H](CC(C)C)C(=O)N[C@H](CC(C)C)C(N)=O)[C@H](C)CC [DGL13R, NH2-Gly-d-Arg-d-Ile-d-Ile-d-Arg-d-Leu-d-Arg-d-Ala-d-Ser-d-Leu-d-Arg-d-Leu-d-Leu-CONH2] (H-G[dR][dI][dI][dR][dL][dR][dA][dS][dL][dR][dL][dL]-NH2) | 2.6 µg/mL | 1.3 to 2.6 µg/mL | 500 µg/mL | did not form hydrogels | – | effectively prevented the growth | – | – | increased solubility | –
CC[C@@H](C)[C@@H](NC(=O)[C@@H](CCCCN)NC(=O)CNC(=O)CCOCCN)C(=O)N[C@@H](C(=O)N[C@H](CCCCN)C(=O)N[C@H](CC(C)C)C(=O)N[C@H](CCCCN)C(=O)N[C@H](C)C(=O)N[C@H](CO)C(=O)N[C@H](CC(C)C)C(=O)N[C@H](CCCCN)C(=O)N[C@H](CC(C)C)C(=O)N[C@H](CC(C)C)C(N)=O)[C@H](C)CC [PEG-DGL13K, PEG-Gly-d-Lys-d-Ile-d-Ile-d-Lys-d-Leu-d-Lys-d-Ala-d-Ser-d-Leu-d-Lys-d-Leu-d-Leu-CONH2] (H-[PEG1]G[dK][dI][dI][dK][dL][dK][dA][dS][dL][dK][dL][dL]-NH2) | 5 to 10.4 µg/mL | – | – | – | – | – | – | – | soluble in PBS | less toxic
CC[C@H](C)[C@H](NC(=O)[C@H](CCCCN)NC(=O)CNC(=O)COCCOC)C(=O)N[C@H](C(=O)N[C@@H](CCCCN)C(=O)N[C@@H](CC(C)C)C(=O)N[C@@H](CCCCN)C(=O)N[C@@H](C)C(=O)N[C@@H](CO)C(=O)N[C@@H](CC(C)C)C(=O)N[C@@H](CCCCN)C(=O)N[C@@H](CC(C)C)C(=O)N[C@@H](CC(C)C)C(N)=O)[C@@H](C)CC [PEG-LGL13K] (MeOCH2CH2OCH2CO-GKIIKLKASLKLL-NH2; N-terminus assumed) | 20.8 µg/mL | 83 µg/mL | – | formed hydrogels | – | – | – | – | – | –
CC[C@@H](C)[C@@H](NC(=O)[C@@H](CCCCN)NC(=O)CNC(=O)[C@@H](C)NC(=O)CNC(=O)CNC(=O)[C@@H](CC(C)C)NC(=O)CCOCCN)C(=O)N[C@@H](C(=O)N[C@H](CCCCN)C(=O)N[C@H](CC(C)C)C(=O)N[C@H](CCCCN)C(=O)N[C@H](C)C(=O)N[C@H](CO)C(=O)N[C@H](CC(C)C)C(=O)N[C@H](CCCCN)C(=O)N[C@H](CC(C)C)C(=O)N[C@H](CC(C)C)C(N)=O)[C@H](C)CC [PEG-pro-DGL13K, PEG-d-Leu-Gly-Gly-d-Ala-Gly-d-Lys-d-Ile-d-Ile-d-Lys-d-Leu-d-Lys-d-Ala-d-Ser-d-Leu-d-Lys-d-Leu-d-Leu-CONH2] (H-[PEG1][dL]GG[dA]G[dK][dI][dI][dK][dL][dK][dA][dS][dL][dK][dL][dL]-NH2) | 10.4 µg/mL | 5.2 µg/mL | 1000 µg/mL | – | – | – | – | – | – | less toxic
H-GKIIKLKASLKLL-NH2 [LGL13K] | 10.4 µg/mL | 20.8 µg/mL | 188 µg/mL | formed hydrogels | prevented the growth | – | – | – | not soluble | –
PEG-d-Glu-d-Glu-d-Glu-d-Glu-d-Leu-Gly-Gly-d-Ala-Gly-d-Lys-d-Ile-d-Ile-d-Lys-d-Leu-d-Lys-d-Ala-d-Ser-d-Leu-d-Lys-d-Leu-d-Leu-CONH2 ({PEG}-[dE][dE][dE][dE][dL]GG[dA]G[dK][dI][dI][dK][dL][dK][dA][dS][dL][dK][dL][dL]-NH2; reading uncertain) [PEG-E4-pro-DGL13K] | – | – | – | did not form hydrogels | – | – | – | – | – | –
polymyxin B [reference compound] | – | – | – | does not form hydrogel | – | – | – | – | – | –
